Measurements as given in PubChem BioAssay (NCI).
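In this assay, cells in 96-well plates receive the compound at five concentrations for 48 hours. Endpoints are linearly interpolated between the surrounding concentrations. TGI marks complete inhibition of growth.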

Experiments:
Experiment in all cases: NCI-60 cell line screen, 48 h
ACHN renal = tested on: ACHN renal
CAKI-1 renal = tested on: CAKI-1 renal
EKVX NSCLC = tested on: EKVX NSCLC
HOP-92 NSCLC = tested on: HOP-92 NSCLC
HT29 colon = tested on: HT29 colon
NCI-H23 lung = tested on: NCI-H23 lung
NCI-H522 lung = tested on: NCI-H522 lung
OVCAR-3 ovarian = tested on: OVCAR-3 ovarian
PC-3 prostate = tested on: PC-3 prostate
RPMI-8226 leukemia = tested on: RPMI-8226 leukemia
SK-MEL-28 melanoma = tested on: SK-MEL-28 melanoma

Row | Compound | TGI (ACHN renal) [µM] | TGI (CAKI-1 renal) [µM] | TGI (EKVX NSCLC) [µM] | TGI (HOP-92 NSCLC) [µM] | TGI (HT29 colon) [µM] | TGI (NCI-H23 lung) [µM] | TGI (NCI-H522 lung) [µM] | TGI (OVCAR-3 ovarian) [µM] | TGI (PC-3 prostate) [µM] | TGI (RPMI-8226 leukemia) [µM] | TGI (SK-MEL-28 melanoma) [µM]
1 | Fc1ccc(N2C(=S)SC(=Nc3ccccc3)C2=Nc2ccccc2)cc1 | > 100 | > 100 | > 100 | > 100 | > 100 | > 100 | > 100 | > 100 | > 100 | > 100 | > 100
2 | CC(=O)Oc1ccc(/C=C/C(=O)OCCCOC(=O)/C=C/c2ccc(OC(C)=O)c(OC(C)=O)c2)cc1OC(C)=O | > 100 | > 100 | > 100 | > 100 | > 100 | > 100 | > 100 | > 100 | > 100 | > 100 | > 100
3 | CC(C)=CCN1CC(C)C(=O)Nc2ccccc21 (centres undefined) | > 100 | > 100 | > 100 | > 100 | > 100 | > 100 | > 100 | > 100 | > 100 | > 100 | > 100
4 | CC(=O)NC1C(OCc2ccccc2)OC(CO)C(O)C1OC(C)C(=O)NC(C)C(=O)NC(CCC(=O)NCCCCNc1c2ccccc2nc2cccc([N+](=O)[O-])c12)C(N)=O (centres undefined) | 0.0664 | 0.307 | 0.322 | 0.101 | 0.0362 | 0.221 | 0.286 | 1.64 | 0.663 | 0.0629 | 0.409
5 | CCC1OC2C(CC=C(C)C)=C3OC(C)(O)C(C)(CC)C(OC(C)=O)C3=C3OC(=O)C=C1C32 (centres undefined) | > 100 | 62.1 | > 100 | > 100 | 53.1 | 75.5 | 38.1 | > 100 | > 100 | > 100 | 59.1
6 | COC(=O)c1ccc2c(c1)S/C(=C/c1ccc3ccc4cccc5ccc1c3c45)S2 | > 100 | > 100 | > 100 | > 100 | > 100 | 52.7 | 92.2 | 49.3 | > 100 | > 100 | 
7 | CC1(C)CC[C@]2(C)CC[C@]3(C)C(=CC[C@@H]4[C@@]5(C)CCC(=O)C(C)(C)[C@@H]5[C@H](O)C[C@]43C)[C@@H]2C1 | 30.6 | 33.7 | 32.4 | 31.7 | 31.8 | 35.3 | 31.9 | 31 | 30.9 | 53.2 | 34.8
8 | O=C(NC1CCN(Cc2ccccc2)CC1)c1ccc(I)cc1 | > 100 | > 100 | > 100 | > 100 | > 100 | > 100 | > 100 | > 100 | > 100 | > 100 | > 100
9 | COc1ccc(OC)c(N(CN2C(=O)CCC2C(=O)O)C(C)=O)c1 (centres undefined) | > 100 | > 100 | > 100 | > 100 | > 100 | > 100 | > 100 | > 100 | > 100 | > 100 | > 100
10 | O=C(c1cccs1)N(C(=S)OCCOc1ccccc1)c1ccccc1 | 72.1 | 83.8 | 78.8 | 45.9 | 96.5 | 42.3 | 45.1 | 41.6 | > 100 | 53.9 | 55.9
11 | C=C1CC(c2ccc(OCCCN3C(=O)c4ccccc4C3=O)cc2)OC1=O (centres undefined) | 10.4 | 6.54 | 18.4 | 2.99 | 9.24 | 9.34 | 1.83 | 5.31 | 10.9 | 3.68 | 3.98
12 | COC(=O)c1ccc(S)c(S(=O)(=O)Nc2n[nH]c(N)n2)c1 | > 100 | > 100 | > 100 | > 100 | > 100 | > 100 | > 100 | > 100 | > 100 | > 100 | > 100
13 | CCOP1(=O)CC(C)=C(Cl)C(O)C1 (centres undefined) | > 100 | > 100 | > 100 | > 100 | > 100 | > 100 | > 100 | > 100 | > 100 | > 100 | > 100
14 | CCC(=O)C(CCN1CCC2(CCCc3ccccc32)CC1)(c1ccccc1)c1ccccc1 | 11.3 | 14.5 | 17.6 | 4.03 | 6.01 | 5.45 | 7.14 | 6.67 | 8.87 | 2.35 | 14
15 | O=c1c2cc(S(=O)(=O)O)ccc2nc(COc2ccc(Oc3ccc(Cl)cc3Cl)cc2)n1-c1ccc(Oc2ccc(Cl)cc2)cc1Cl | 56.6 | > 100 | 44.5 | 31.4 | 36 | 43 | 47.8 | 36.9 | > 100 | 65.4 | 
16 | CCOC(=O)C1(C(=O)OCC)[C@@H](c2ccccc2)C2=NO[C@@H]3CCC[C@H]1[C@H]23 | > 100 | > 100 | > 100 | > 100 | > 100 | > 100 | > 100 | > 100 | > 100 | > 100 | > 100
17 | COc1cc2c(c(O)c1OC)C(=O)[C@@H]1CCC(=O)N1C2 | > 100 | > 100 | > 100 | > 100 | > 100 | > 100 | > 100 | > 100 | > 100 | > 100 | > 100
18 | CCOC(=O)N1N=C(/C(C)=N/OC)C(C)S1=O (centres undefined) | > 100 | > 100 | > 100 | > 100 | > 100 | > 100 | > 100 | > 100 | > 100 | > 100 | > 100

Row | Compound | TGI (ACHN renal) [µM] | TGI (CAKI-1 renal) [µM] | TGI (EKVX NSCLC) [µM] | TGI (HOP-92 NSCLC) [µM] | TGI (HT29 colon) [µM] | TGI (NCI-H23 lung) [µM] | TGI (NCI-H522 lung) [µM] | TGI (OVCAR-3 ovarian) [µM] | TGI (PC-3 prostate) [µM] | TGI (RPMI-8226 leukemia) [µM] | TGI (SK-MEL-28 melanoma) [µM]
19 | COc1ccc2c(c1)c1c(n2CCN(C)C)-c2ccccc2CC1 | 30 | 27.6 | 24.4 | 31 | 20.3 | 31.9 | 32.9 | 30.9 | 25.2 | 45 | 29.1
20 | Clc1cc(Cl)cc(N=C/C=C/Nc2cc(Cl)cc(Cl)c2)c1 | 44.7 | 38.2 | 26.9 | > 100 | 28.5 | 30.6 | 34.1 | 27.7 | 36.6 | 76.9 | 47
21 | CSC(=S)Nc1cccc(C)n1 | > 100 | > 100 | > 100 | > 100 | > 100 | > 100 | > 100 | > 100 | > 100 | > 100 | > 100
22 | Cc1ccc(-c2nc(N/N=C/C=C/c3ccccc3)c3ccccc3n2)cc1 | 75.9 | > 100 | 51.8 | > 100 | > 100 | > 100 | > 100 | > 100 | > 100 | > 100 | > 100
23 | O=[N+]([O-])c1ccc(-c2nc3ccc(Cl)cc3[nH]2)cc1 | > 100 | > 100 | > 100 | > 100 | > 100 | > 100 | > 100 | > 100 | > 100 | > 100 | > 100
24 | O=C(c1ccccc1)N(C(=O)c1ccccc1)c1nc(SCc2ccccc2)ns1 | > 100 | > 100 | 68.7 | 73.6 | 84.8 | 57.3 | 61.5 | 59.4 | 71 | 56.6 | 93.1
25 | COC(=O)[C@]1(NC(=O)c2ccccc2)C[C@H]1C=O | > 100 | > 100 | > 100 | > 100 | > 100 | > 100 | > 100 | > 100 | > 100 | > 100 | > 100
26 | CC1(C)OCC([C@H]2O[C@@H](CC(=S)NCCCCCCCCCCCCNC(=S)C[C@H]3O[C@@H](C4COC(C)(C)O4)[C@H]4OC(C)(C)O[C@H]43)[C@H]3OC(C)(C)O[C@H]32)O1 (some centres undefined) | > 100 | > 100 | > 100 | > 100 | > 100 | > 100 | > 100 | > 100 | > 100 | 68.8 | > 100
27 | CC1=NN(c2nc(N)nc(/C(C#N)=C\c3csc([N+](=O)[O-])c3)n2)C(C)(C)C1 | > 100 | > 100 | 90.1 | > 100 | > 100 | 97.5 | 50.1 | 78.9 | 41.5 | > 100 | > 100
28 | N#Cc1c2c(c(N)oc1=O)C(c1ccccc1)CC(=O)N2 (centres undefined) | > 100 | > 100 | > 100 | > 100 | > 100 | > 100 | > 100 | > 100 | > 100 | > 100 | > 100
29 | COc1ccc(OC)c(CNc2ccc(C(=O)O)cc2)c1 | > 100 | > 100 | > 100 | > 100 | > 100 | > 100 | > 100 | > 100 | > 100 | > 100 | > 100
30 | O=c1[nH]c(=S)nc2nc3c4ccc[nH]c4c4ccccc4c3nc12 | > 100 | > 100 | > 100 | > 100 | > 100 | > 100 | > 100 | > 100 | > 100 | > 100 | > 100
31 | O=[N+]([O-])c1ccc(C(=S)Nc2ccccc2)o1 | 6.66 | 13.9 | 12.5 | 31.8 | 5.86 | 12.4 | 3.11 | 6.38 | 4.63 | 4.9 | 19.3
32 | c1cc2nnc1SCCCSc1ccc(nn1)SCCCS2 | > 100 | > 100 | > 100 | > 100 | > 100 | > 100 | > 100 | > 74.1 | > 100 | > 100 | > 100
33 | Cc1cn(CCCCC2=NCCCN2)c(=O)[nH]c1=O | > 31 | > 23.4 | > 42 | 18.3 | > 23.1 | > 44.3 | > 46.3 | > 33.1 | > 35 | > 100 | > 32.9
34 | COc1ccc(/C(Br)=C2\OC(=O)c3ccccc32)cc1 | > 10 | > 10 | > 10 | > 10 | > 10 | > 10 | > 10 | > 10 | > 10 | > 10 | > 10
35 | CC1(C)OC(=S)N(c2ccccc2)C12C=Cc1ccccc1O2 (centres undefined) | > 100 | > 100 | > 100 | > 100 | > 100 | > 100 | > 100 | > 100 | > 100 | > 100 | > 100
36 | CCOC(=O)c1sc2nc(SC)nc3c2c1NCN3c1ccc2c(c1)OCO2 | 26 | > 100 | > 100 | 32.4 | > 100 | > 100 | 98.1 | 50 | 37.2 | > 100 | > 100
